The source of these data is patent US20040197859A1, “Isolated dna molecules encoding humanized calcitonin gene-related peptide receptor, related non-human transgenic animals and assay methods” (priority 2001, published 2004).

pIC50: −log10 of the molar value.

One test deals with rCRLR/rRAMP1 (rat) (UniProt Q63118). Put plainly: competitive radioligand binding against 10 pM 125I-hCGRP, membranes of transfected 293 EBNA cells.
Another test deals with human CGRP receptor (Homo sapiens, UniProt O60894+Q16602). As to conditions: cited from earlier work.
The next test concerns the target T1, rCRLR/Chimera 1 (Rattus norvegicus, UniProt Q63118+Q9JJ74, D29E/D31N/E46V/G64R/I36L/I51V/K45Q/K53E/K61R/P30A/Q37R/R28Q/R43Q/S42T/T34A/T50A/V24T).
T1 construct: expressed in transfected cells; host or cells: 293 EBNA cells, transient co-transfection, membranes
The test is described as follows: competitive 125I-hCGRP binding, membranes expressing rCRLR with RAMP1 Chimera 1. More on the design: species or system rat CRLR, human/rat chimeric RAMP1. As to conditions: Table 5; rCRLR/Chimera 1 (first 66 aa of rRAMP1 replaced with human). The text has this: Two human/rat chimeric RAMP1 cDNAs were constructed by using restriction fragments of the corresponding native cDNAs. Chimera 1 was created by replacing the nucleotides coding for the first 66 amino acids of rRAMP1 with the corresponding nucleotides of hRAMP1 by using the BsgI restriction site along with a NheI site located in the cloning vector. Chimera 2 was created by replacing the nucleotides coding for the first 112 amino acids of rRAMP1 with the corresponding nucleotides of hRAMP1 by using the SanDI restriction site along with a NheI site located in the cloning vector. Cell Culture and DNA Transfection-293 EBNA cells were cultured in DMEM with 4.5 g/L glucose, 1 mM sodium pyruvate and 2 mM glutamine supplemented with 10% Fetal Bovine Serum (FBS), 100 units/mL penicillin and 100 μg/mL streptomycin, and maintained at 37° C. and 95% humidity. Cells were subcultured by treatment with 0.25% trypsin with 0.1% EDTA in HBSS. Twenty-four hours prior to transfection, the cells were seeded at 2.0×10^7/dish in 500 cm^2 dishes. The following day, the cells were re-fed with fresh growth medium 1 hour before transfection. Transfections were performed by combining 60 μg/dish DNA with 180 μg/dish Lipofectamine 2000 (Life Technologies). cDNA's for CRLR and RAMP1 in the mammalian expression vector pcDNA3.1 were co-transfected in equal amounts. […] Data were analyzed by using GraphPad Prism. […]

A further test addresses T2, rCRLR/rK74W RAMP1 (Rattus norvegicus, UniProt Q63118+Q9JJ74, K74W).
T2 construct: and the rRAMP1 expression vector construct as template; expressed in transfected cells; host or cells: 293 EBNA cells, transient co-transfection, membranes
The test is described as follows: competitive 125I-hCGRP binding, membranes expressing rCRLR and mutant rK74W RAMP1. As to conditions: Table 6. As to the method: Rat RAMP1 site-directed mutagenesis was performed by using the Quick Change Site-directed Mutagenesis Kit (Stratagene) according to the manufacturer's instructions. […] of rRAMP1 was replaced with the corresponding human/marmoset amino acid tryptophan utilizing two complementary mutant oligonucleotide primers ([NT] ID NO:27] and [NT] ID NO:28]) and the rRAMP1 expression vector construct as template. This mutation was accomplished by substituting the codon TGG corresponding to tryptophan (r[…] RAMP1). All constructs were sequenced bidirectionally with 100% coverage in each direction. Cell Culture and DNA Transfection-293 EBNA cells were cultured in DMEM with 4.5 g/L glucose, 1 mM sodium pyruvate and 2 mM glutamine supplemented with 10% Fetal Bovine Serum (FBS), 100 units/mL penicillin and 100 μg/mL streptomycin, and maintained at 37° C. and 95% humidity. Cells were subcultured by treatment with 0.25% trypsin with 0.1% EDTA in HBSS. Twenty-four hours prior to transfection, the cells were seeded at 2.0×10^7/dish in 500 cm^2 dishes. The following day, the cells were re-fed with fresh growth medium 1 hour before transfection. Transfections were performed by combining 60 μg/dish DNA with 180 μg/dish Lipofectamine 2000 (Life Technologies). cDNA's for CRLR and RAMP1 in the mammalian expression vector pcDNA3.1 were co-transfected in equal amounts. […] Data were analyzed by using GraphPad Prism. […]

In test [1] the target is T3, mCRLR/mRAMP1 (native mouse receptor) (Mus musculus, UniProt Q9R1W5+Q9WTJ5).
T3 construct: expressed in transfected cells
The test is described as follows: competitive binding, membranes expressing mCRLR/mRAMP1. As to conditions: Table 7. The method, then:
(§1) Cell Culture and DNA Transfection—293 EBNA cells were cultured in DMEM with 4.5 g/L glucose, 1 mM sodium pyruvate and 2 mM glutamine supplemented with 10% Fetal Bovine Serum (FBS), 100 units/mL penicillin and 100 μg/mL streptomycin, and maintained at 37° C. and 95% humidity. Cells were subcultured by treatment with 0.25% trypsin with 0.1% EDTA in HBSS.
(§2) Twenty-four hours prior to transfection, the cells were seeded at 2.0×10^7/dish in 500 cm^2 dishes. The following day, the cells were re-fed with fresh growth medium 1 hour before transfection. Transfections were performed by combining 60 μg/dish DNA with 180 μg/dish Lipofectamine 2000 (Life Technologies). cDNA's for CRLR and RAMP1 in the mammalian expression vector pcDNA3.1 were co-transfected in equal amounts. The transfection cocktail was added directly to the medium and this mixture was replaced with fresh medium 24 hours later. The cells were harvested for membranes 48 hours post-transfection.
(§3) Membrane Preparation and Radioligand Binding Studies—Transiently transfected 293 EBNA cells were washed once with PBS and harvested in harvest buffer containing 50 mM HEPES, 1 mM EDTA and Complete protease inhibitors (Roche).

In a further test the target is T4, rCRLR/hRAMP1 (UniProt O60894+Q63118).
T4 construct: expressed in transfected cells; host or cells: 293 EBNA cells, transient co-transfection, membranes
Put plainly: competitive 125I-hCGRP binding, membranes expressing hybrid rCRLR/hRAMP1. More on the design: species or system rat CRLR, human RAMP1. Conditions: Table 4. The method, then: as §1
as §2, with “post-transfection. […]” for “post-transfection.”
For binding assays, 1.5-25 μg of membranes (dependent upon receptor expression levels) were incubated for 3 hours at room temperature in binding buffer (10 mM HEPES, 5 mM MgCl2, 0.2% BSA) containing 10 pM ^125I-hCGRP (Amersham) in a total volume of 1 mL. […] Data were analyzed by using GraphPad Prism.

Test [2] addresses T5, rCRLR/rRAMP1 (native rat CGRP receptor) (Rattus norvegicus, UniProt Q63118+Q9JJ74).
T5 construct: expressed in transfected cells; host or cells: 293 EBNA cells, transient co-transfection, membranes
Put plainly: competitive 125I-hCGRP binding, membranes expressing rCRLR/rRAMP1. The method, then: as §1, §2, §3

The target in a further test is T6, mCRLR/mK74W RAMP1 (Mus musculus, UniProt Q9R1W5+Q9WTJ5, K74W).
T6 construct: The mouse RAMP1 expression vector construct was used as template; expressed in transfected cells
Put plainly: competitive binding, membranes expressing mCRLR and mutant mK74W RAMP1. Conditions: Table 7. As to the method: as §1, §2, §3

For the compound CGRP8-37 (peptide), in the test with rCRLR/rRAMP1 (rat), the negative logarithm of the IC50 (pIC50) (commonly the IC50 on a negative log10 scale, so that one unit is a factor of ten) is 8.70.

`NCCCC[C@H](NC(=O)[C@@H](Cc1cc(Br)c(O)c(Br)c1)NC(=O)N1CCC(N2Cc3ccccc3NC2=O)CC1)C(=O)N1CCN(c2ccncc2)CC1` [BIBN4096BS]: the “higher affinity for the human CGRP receptor than for the rat receptor” value at human CGRP receptor (human vs rat, Doods et al.) is 200 fold. The “lower affinity for CGRP receptors from rat, rabbit, dog, and guinea pig” value at human CGRP receptor (versus human CGRP receptor, Doods et al. 2000) is 200 fold. For the same compound, the pIC50 on rCRLR/Chimera 1 is 8.32; on rCRLR/rK74W RAMP1 it was 10.10; in test [1], 8.07; on rCRLR/hRAMP1, 9.39; in test [2] (Table 4), 8.16; in test [2] (Table 6) it was 8.26. The pIC50 on mCRLR/mK74W RAMP1 was 10.00.
